Values of other authors as cited in patent US20110152382A1, “Composition of molecular elements for phosphorylase kinase inhibition” (priority 2009, published 2011).

Legend:
phosphorylase kinase [1] = tested on: phosphorylase kinase
phosphorylase kinase [2] = settings: previously reported by the inventor

| Compound | anti-phosphorylase kinase activity (phosphorylase kinase [1]) | phosphorylase kinase activity in psoriatic skin (phosphorylase kinase [2]) |
| --- | --- | --- |
| curcumin glucuronate | do not have anti-phosphorylase kinase activity | – |
| COc1cc(/C=C/C(=O)CC(=O)/C=C/c2ccc(O)c(OC)c2)ccc1O [curcumin, diferuloylmethane] | selective phosphorylase kinase inhibitor | suppression of phosphorylase kinase activity |
